Experiments:
human androgen receptor = molecular target: T1, human androgen receptor (Homo sapiens, UniProt P10275); test: androgenic activity rating (procedures described above; which one underlies the rating is not stated); set-up: key: +: androgenic activity found; ++: high androgenic activity; +++: excellent androgenic activity
T1 construct: host or cells: MCF-7 cytosol (endogenous) or CHO cells transfected with hAR
T1 sequence (P10275 1-920): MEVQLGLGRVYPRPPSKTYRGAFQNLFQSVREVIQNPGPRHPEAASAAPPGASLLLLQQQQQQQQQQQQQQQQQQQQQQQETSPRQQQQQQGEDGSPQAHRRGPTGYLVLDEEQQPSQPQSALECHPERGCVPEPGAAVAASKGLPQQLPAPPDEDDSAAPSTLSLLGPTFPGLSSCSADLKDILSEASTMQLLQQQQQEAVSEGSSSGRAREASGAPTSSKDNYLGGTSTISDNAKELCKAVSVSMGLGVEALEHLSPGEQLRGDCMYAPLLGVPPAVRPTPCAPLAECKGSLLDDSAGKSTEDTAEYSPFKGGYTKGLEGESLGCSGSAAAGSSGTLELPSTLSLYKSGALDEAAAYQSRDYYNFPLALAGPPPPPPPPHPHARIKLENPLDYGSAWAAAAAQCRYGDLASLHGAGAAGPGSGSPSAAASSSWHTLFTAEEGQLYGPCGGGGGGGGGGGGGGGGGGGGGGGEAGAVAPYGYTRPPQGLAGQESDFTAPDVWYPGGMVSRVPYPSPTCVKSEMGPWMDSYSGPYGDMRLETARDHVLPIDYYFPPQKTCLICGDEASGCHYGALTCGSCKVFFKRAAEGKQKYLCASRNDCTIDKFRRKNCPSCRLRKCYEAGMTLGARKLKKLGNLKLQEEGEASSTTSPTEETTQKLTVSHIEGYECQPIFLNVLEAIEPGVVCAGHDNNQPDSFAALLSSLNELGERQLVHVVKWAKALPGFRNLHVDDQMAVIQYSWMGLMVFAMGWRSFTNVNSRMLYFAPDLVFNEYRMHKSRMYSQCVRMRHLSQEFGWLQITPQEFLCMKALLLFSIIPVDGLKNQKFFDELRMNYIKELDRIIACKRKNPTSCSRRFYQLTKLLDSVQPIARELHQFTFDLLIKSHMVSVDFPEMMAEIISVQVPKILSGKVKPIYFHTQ
Procedure: Androgenic activity can be measured in various ways. Thus, the potency of androgens can be determined in vitro using the cytoplasmic androgen receptor from human breast tumor cells (MCF-7 cell line); see Bergink, E. W. et al, Comparison of the receptor binding properties of nandrolone and testosterone under in vitro and in vivo conditions, J. Steroid Biochem. 22, 831-836 (1985). It is also possible to use Chinese hamster ovary (CHO) cells transfected with the human androgen receptor (incubation time 16 h, temperature 4° C.) and compared with the affinity of 5α-dihydrotestosterone [according to the procedure described by Bergink, E. W. et al, J. Steroid Biochem. 12, 1563-1570 (1983)]. The transactivative androgen activity of the compounds of the invention can be measured, e.g. in Chinese hamster ovary cells (CHO) transfected with the human androgen receptor (hAR), in combination with a mouse mammary tumor virus (MMTV), and luciferase […] (incubation time 16 h, temperature 37° C.) and compared with the activity of 5α-dihydrotestosterone [according to the procedure described by Schoonen, W. G. E. J. et al, Analyt. Biochem. 261, 222-224 (1998)]. For the in vivo potency determination of androgens the classical Hershberger test can be used. In this test the androgenic (increase in prostate weight) and anabolic activities [increase of the musculus levator ani (MLA)] of a compound are tested in immature castrated rats after daily administration for 7 days; see Hershberger, L. G. et al, Myotrophic activity of 19-Nortestosterone and other steroids determined by modified levator ani muscle method, Proceedings of the society for experimental biology and medicine 83, 175-180 (1953). Additionally, the effect of an androgenic compound on LH suppression can be tested in mature castrated rats according to Kumar, N. et al, The biological activity of 7alpha-methyl-19-nortestosterone is not amplified in male reproductive tract as is that of testosterone, Endocrinology 130, 3677-3683 (1992).
A plurality of compounds according to the invention were tested for androgenic activity (the procedures for which have been described above) and rated in the Table below according to the following scheme: • + androgenic activity found; • ++ high androgenic activity; • +++ excellent androgenic activity; • nd no data available

Row | Compound | melting point | Rating (androgenic activity) (human androgen receptor)
1 | CC(=O)OC[C@@H]1CC[C@@H]2[C@@H]3CCC4=CC(=O)CC[C@]4(C)[C@H]3CC[C@]12C [Example 22a, (14β,17α)-17-[(Acetyloxy)methyl]androst-4-en-3-one] | 141 to 142 °C | +
2 | C[C@@H]1CC2=CC(=O)CC[C@@H]2[C@H]2CC[C@@]3(C)[C@H](CC[C@]3(F)CO)[C@@H]21 [Example 12, (7α,14β,17α)-17-Fluoro-17-(hydroxymethyl)-7-methylestr-4-en-3-one] | – | +++
3 | CC1CC2=CC(=O)CCC2C2CCC3(C)C(CCC3C(C)(C)O)C12 (stereo not drawn) [Example 19, (7α,14β,17α)-20-Hydroxy-7,20-dimethyl-19-norpregn-4-en-3-one] | – | +
4 | C=CCC(O)C1CCC2C3C(C)CC4=CC(=O)CCC4C3CCC12C [Example 18g, (7α,14β,17α,20S)-20-Hydroxy-7-methyl-19,21-dinorchola-4,23-dien-3-one] | – | +
5 | CC(O)C1CCC2C3CCC4=CC(=O)CCC4=C3CCC12C [Example 27a, (14β,17α,20S)-20-Hydroxy-19-norpregna-4,9-dien-3-one] | – | ++
6 | C[C@]12CC[C@@H]3C4=C(CC[C@H]3[C@H]1CC[C@H]2CO)CC(=O)CC4 [Example 2, (14β,17α)-17-(Hydroxymethyl)estr-5(10)-en-3-one] | – | ++
7 | C=C[C@@H]1CC2=CC(=O)CC[C@@H]2[C@H]2CC[C@]3(C)[C@H](CO)CC[C@@H]3[C@@H]21 [Example 15, (7α,14β,17α)-7-Ethenyl-17-(hydroxymethyl)estr-4-en-3-one] | – | ++
8 | C[C@@H]1CC2=CC(=O)CC[C@@H]2[C@H]2CC[C@@]3(C)[C@H](C[C@@H](C)[C@H]3CO)[C@@H]21 [Example 8, (7α,14β,16α,17α)-17-(Hydroxymethyl)-7,16-dimethylestr-4-en-3-one] | – | +
9 | C#C[C@H](O)[C@@H]1CC[C@@H]2[C@H]3[C@H](CC[C@@]21C)[C@H]1CCC(=O)C=C1C[C@H]3C [Example 18c, [7α,14β,17α(R)]-17-(1-Hydroxy-2-propynyl)-7-methylestr-4-en-3-one] | – | +
10 | CC(O)C1CCC2C3CCC4=CC(=O)CCC4C3CCC12C [Example 24b, (14β,17α,20R)-20-Hydroxy-19-norpregn-4-en-3-one] | – | +
11 | CC(O)C1CCC2C3C(C)CC4=CC(=O)CCC4C3CCC12C [Example 16a, (7α,14β,17α,20S)-20-Hydroxy-7-methyl-19-norpregn-4-en-3-one] | – | ++
12 | C[C@]12CCC3=C4CCC(=O)C=C4CC[C@H]3[C@H]1CC[C@H]2CO [Example 3, (14β,17α)-17-(Hydroxymethyl)estra-4,9-dien-3-one] | – | +
13 | CCCCCCCCCCC(=O)OC[C@@H]1CC[C@@H]2[C@H]3[C@H](CC[C@]12C)[C@H]1CCC(=O)C=C1C[C@H]3C [Example 33c, (7α,14β,17α)-7-Methyl-17-[[(1-oxoundecyl)oxy]methyl]estr-4-en-3-one] | – | +
14 | C[C@]12CC[C@H]3[C@@H](CCC4=CC(=O)CC[C@@H]43)[C@H]1CC[C@H]2CO [Example 1, (14β,17α)-17-(Hydroxymethyl)estr-4-en-3-one] | 115 to 118 °C | +++
15 | C[C@@H]1CC2=CC(=O)CC[C@@H]2[C@H]2CC[C@]3(C)[C@H](CO)CC[C@@H]3[C@@H]21 [Example 4, (7α,14β,17α)-17-(Hydroxymethyl)-7-methylestr-4-en-3-one] | – | +++
16 | CCC(O)[C@@H]1CC[C@@H]2[C@@H]3CCC4=CC(=O)CC[C@@H]4[C@H]3CC[C@@]21C (stereo partly drawn) [Example 25b, [14β,17α(R)]-17-(1-Hydroxypropyl)estr-4-en-3-one] | – | +
17 | CC(O)C1CCC2C3C(C)CC4=CC(=O)CCC4C3CCC12C [Example 16b, (7α,14β,17α,20R)-20-Hydroxy-7-methyl-19-norpregn-4-en-3-one] | – | +
18 | C=CC1CC2(C)C(C(C)O)CCC2C2CCC3=CC(=O)CCC3=C12 [Example 30, (11β,14β,17α,20S)-11-Ethenyl-20-hydroxy-19-norpregna-4,9-dien-3-one] | – | +
19 | CC[C@@H]1CC2=CC(=O)CC[C@@H]2[C@H]2CC[C@]3(C)[C@H](CO)CC[C@@H]3[C@H]12 [Example 14, (7α,14β,17α)-7-Ethyl-17-(hydroxymethyl)estr-4-en-3-one] | – | +

Reference: US6881728B1, “14-β, 17-α-hydroxymethylandrostane derivatives as androgens” (Akzo Nobel N.V., priority 1999, dated 2005)
